Measured values taken from publication PMC12040169 (PLOS Biology, 2025).

assay: in vitro; conditions: human, hela cells, % viability

SMILES | viability at 28.5 h, 10 µM
O=S(=O)(Nc1ncc(Br)c2cccnc12)c1cccc(C(F)(F)F)c1 [CBK073884] | 112%
O=S(=O)(Nc1ncc(Br)c2cccnc12)c1ccc(Oc2ccccc2)cc1 [CBK073886] | 105%
O=c1ccc2cc(S(=O)(=O)Nc3ncc(Br)c4cccnc34)ccc2o1 [CBK073887] | 94%
O=S(=O)(Nc1ncc(Br)c2cccnc12)c1ccc(Cl)c(Cl)c1 [CBK073888] | 89.5%
Cc1nn(C)c(Cl)c1S(=O)(=O)Nc1ccc2cc(Br)cnc2n1 [CBK073892] | 78.3%
COC(=O)c1cn(Cc2ccccc2)nn1 [CBK073903] | 98.1%
COc1ccc([C@@]23CC[C@@H](NC(=O)Nc4cc(F)c(F)c(F)c4)C[C@@H]2N(C)CC3)c(F)c1OC [CBK073909T] | 90.6%
Cc1ccc(C2(C)CC(C)(C)N(C(=O)CSc3nnc[nH]3)c3ccccc32)cc1 (stereo not shown) [CBK073918] | 89.2%
O=C1N=C(NC2CC3CCC2C3)SC12CCC2 (stereo not shown) [CBK073933] | 96.2%
Cc1oc(-c2ccccc2)nc1C(=O)N1CCCN(C)CC1 [CBK073940C] | 105%
O=S(=O)(Nc1cc(O[C@@H]2CCNC2)c2occc2c1)c1cc(F)c(Br)cc1F [CBK073943C] | 92%
CC(C)(C)c1ccc(C(=O)N2CCCCC2CO)cc1 (stereo not shown) [CBK073951] | 86.4%
COc1ccc2[nH]c3c(c2c1)CCNC31CCN(Cc2ccccc2)C1 (stereo not shown) [CBK073952C] | 86.5%
O=C1CCC(=O)N1CCOc1nccnc1N1CCNCC1 [CBK074030T] | 97.6%
Cc1cccc(C(=O)N2CCCCC2C)c1 (stereo not shown) [CBK074052] | 118%
CC(C)C1OC(NCCN2CCOCC2)=NC1=O (stereo not shown) [CBK074097T] | 91%
CC1CCN(CC[C@H]2CCCN2S(=O)(=O)c2cccc(O)c2)CC1 [CBK074118C] | 112%
Cc1cccnc1C(c1ccccc1)N(C)C(=O)C1CCN(C(=O)NCc2ccccc2)CC1 (stereo not shown) [CBK074119] | 106%
Cc1cccc(C(=O)N2CCCCC2CN(C)C)c1 (stereo not shown) [CBK074171] | 81.7%
CCOC(=O)c1sc(-c2ccccc2)nc1C [CBK074204] | 87.5%
CCC1CCCCN1C(=O)c1cccs1 (stereo not shown) [CBK074214] | 104%
CCC1CCCCN1C(=O)c1ccc(-c2ccccc2)s1 (stereo not shown) [CBK074215] | 96.5%

SMILES | viability at 28.5 h, 10 µM
CCOC(=O)C1CCN(C(=O)c2ccc(OC)cc2)CC1 [CBK074220] | 99.2%
O=C(c1ccc(OC(F)F)cc1)N1CCCCC1 [CBK074223] | 86.7%
Oc1cc(-c2ccccc2Cl)[nH]n1 [CBK074226] | 95.6%
CCCn1c(-c2ccccc2OC(F)(F)F)n[nH]c1=O [CBK074238] | 110%
COc1cc(OC)cc(C(=O)N[C@@H]2CC[C@@]3(c4ccc(OC)c(OC)c4)CCN(C)[C@H]3C2)c1 [CBK074242T] | 115%
COc1ccc(C(=O)N[C@@H]2CC[C@@]3(c4ccc(OC)c(OC)c4)CCN(C)[C@H]3C2)c(OC)c1 [CBK074247T] | 91.7%
COc1ccc([C@@]23CC[C@@H](NC(=O)c4ccc5occc5c4)C[C@@H]2N(C)CC3)cc1OC [CBK074253T] | 99%
O=C(c1cccc(C(F)(F)F)c1)N1CCCCCC1 [CBK074291] | 98.4%
COc1ccc([C@@]23CCN(C(=O)Nc4ccc(F)c(F)c4F)C[C@@H]2CN(C)C3)cc1OC [CBK074305T] | 106%
Nc1ncc(Br)nc1N[C@@H](CO)c1ccccc1 [CBK074321] | 102%
CCCc1[nH]nc(O)c1Cc1ccccc1CS(=O)(=O)c1ccccc1 [CBK074347] | 87.8%
Oc1nc(CN2CCN(Cc3ccc4c(c3)OCO4)CC2)nc2ccccc12 [CBK074355] | 110%
O=C(CNS(=O)(=O)c1ccc(Br)cc1)N1CCN(Cc2ccc3c(c2)OCO3)CC1 [CBK074358] | 98.1%
Cn1c(=O)c2c(nc(NCc3ccc4c(c3)OCO4)n2Cc2cccc(Cl)c2)n(C)c1=O [CBK074359] | 96.4%
CCCC(=O)N1CCN(Cc2ccc3c(c2)OCO3)CC1 [CBK074367] | 92.7%
O=C(CCCN1C(=O)c2cccc3cccc(c23)C1=O)N1CCN(Cc2ccc3c(c2)OCO3)CC1 [CBK074370] | 72.6%
COc1ccccc1OCC(O)CN1CCN(C(=O)c2ccccc2)CC1 (stereo not shown) [CBK074386C] | 111%
Cc1cc(C(F)(F)F)nc2sc(C(=O)c3ccc4c(c3)OCO4)c(N)c12 [CBK074388] | 94.5%
O=C(NC(NCc1ccc2c(c1)OCO2)(C(F)(F)F)C(F)(F)F)c1cccnc1 [CBK074397] | 78.8%
COc1ccc(CN2CCN(Cc3cccnc3)CC2)cc1OC [CBK074409G] | 94.1%
COc1cccc(N2C(=O)CC(N3CCN(Cc4ccc5c(c4)OCO5)CC3)C2=O)c1 (stereo not shown) [CBK074411] | 93.1%
